Assays:
Format in all cases: physicochemical
[1] = Solubility of the dye in n-hexane; details: in n-hexane at 25° C. and 0.1 MPa
Description: 3. Solubility in n-Hexane
The solubility of the dye in a solvent, n-hexane, was determined as follows.
The dye to be measured was dissolved in n-hexane heated at 50° C., to prepare a saturated solution. The saturated solution obtained was then left in an environment of 25° C. and 0.1 MPa for 1 hour. The precipitated dye was filtered, and the precipitation amount was measured, from which the solubility (% by mass) of the dye in n-hexane at 25° C. and 0.1 MPa was calculated.

[2] = Absorption maximum wavelength, absorbance and absorption coefficient of the colored composition; details: n-hexane solution, 3% by mass or maximum concentration at which the dye completely dissolves; for Absorption Coefficient (ε): calculated by Lambert-Beer law
Description: 2. Absorption Maximum Wavelength, Absorbance and Absorption Coefficient of the Colored Composition
The absorption maximum wavelength (λmax) and the absorbance (abs) of the colored composition were measured using a visible-light spectrophotometer (trade name: UV-1800PC, manufactured by Shimadzu Corporation). The absorption coefficient (∈) was calculated based on the Lambert-Beer law.

[3] = Color of colored composition, visually evaluated; details: n-hexane solution, visual evaluation
From the text: 1. Color of Colored Composition
The color of the colored composition was visually evaluated.

[4] = Measurement of relative permittivity; details: dye itself, extrapolated from 1, 1.5 and 2% by mass n-hexane solutions; 20° C., 40% RH, 1 kHz
Description: 4. Measurement of Relative Permittivity
Solutions of Exemplary Compound D8-4 in n-hexane having concentrations of 1% by mass, 1.5% by mass and 2% by mass, respectively, were prepared, and individually injected into glass cells each having transparent indium-tin-oxide electrodes and a cell gap of 10 μm. The electrical capacities of the resultant cells were measured at 20° C. and 40% RH using a type 2353 LCR meter (manufactured by NF Corporation) at a measurement frequency of 1 kHz. The electrical capacity of n-hexane was also measured as a control sample.
The relative permittivities of the dyes (Exemplary Compounds) employed in the Examples were obtained in the same manner, and the results are shown in Table 7.

[5] = Measurement of dynamic viscosity; details: 3% by mass solution in n-decane, 20° C.
Description: Here, the dynamic viscosity is a value obtained by measurement at 20° C., using a viscometer (type 500, manufactured by Toki Sangyo Co., Ltd.).
5. Measurement of Dynamic Viscosity
A 3% by mass solution of Exemplary Compound D8-4 in n-decane was prepared, and the viscosity of the dye solution was measured at 20° C. using a viscometer (type 500, manufactured by Toki Sangyo Co., Ltd.).
The dynamic viscosities of the dyes (Exemplary Compounds) employed in Examples were obtained in the same manner, and the results are shown in Table 8.

Structure (SMILES) | Solubility (% by Mass) [1] | Absorption Maximum Wavelength (λ max) [2] | Color of Solution [3] | Relative Permittivity [4] | Dynamic Viscosity (mPa · s) [5] | Absorption Coefficient (ε) [2]
CCCCCCCCN1c2cc(C)c(/N=C3\C(C#N)=C(C(=O)OC4C(C(C)(C)C)CC(C)CC4C(C)(C)C)c4nc(C(C)CCCC)nn43)cc2C(C)CC1(C)C (stereo not shown) [D9-2] | 2.2 % by mass | 616 nm | blue |  |  | 
CCCCC(CC)CNC(=O)c1cc(N(CC(CC)CCCC)CC(CC)CCCC)ccc1/N=C1\C(C#N)=C(C(=O)OC2C(C(C)(C)C)CC(C)CC2C(C)(C)C)c2nc(C(C)(C)C)nn21 (stereo not shown) [D9-6] | ≥ 10 or % by mass | 650 nm | blue | 6.2 | 1.2 mPa·s | 
CCCCC(CC)CN1C(=O)C(=Cc2ccc(N(CCCC)CCCC)cc2OCC(CC(C)CC(C)CC(C)C)CC(C)CC(C)(C)C)C(C)=C(C#N)C1=O (stereo not shown) [D3-2] | ≥ 10 or % by mass | 525 nm |  |  |  | 
CCCCC(CC)CNC(=O)C1=CC(=Nc2ccc(N(CC(CC)CCCC)CC(CC)CCCC)cc2C)c2ccccc2C1=O (stereo not shown) [D10-1] |  |  |  | 4.2 | 1.3 mPa·s | 
CCCCC(CC)CN(CC(CC)CCCC)c1ccc(C=C2C(=O)N(C(C)CC)N=C2C(C)CC)c(C)c1 (stereo not shown) [D2-1] | 8.5 % by mass | 508 nm | orange | 8.5 | 1.3 mPa·s | 4.40 × 10^4
CCCCC(CC)CN(CC(CC)CCCC)c1ccc(/N=C2\C(C#N)=C(C(=O)OC3C(C(C)(C)C)CC(C)CC3C(C)(C)C)c3nc(C(CC)CCCC)nn32)c(C(C)CC)c1 (stereo not shown) [D9-3] |  |  |  | 7.6 |  | 
CCN(CC)c1ccc(/N=C2\C(C#N)=C(C(=O)OC)c3nc(-c4ccc(C(C)(C)C)cc4)nn32)c(C)c1 [D9-101, reference compound] | ≤ 0.05 or % by mass |  |  |  |  | 
CCCCCCNc1ccc(NCCCCCC)c2c1C(=O)c1ccccc1C2=O [D4-101, reference compound] | 0.1 % by mass | 642 nm | blue |  |  | 
CCCCC(CC)CN(CC(CC)CCCC)c1ccc(/N=C2\C(C#N)=C(C(=O)OC3C(C(C)(C)C)CC(C)CC3C(C)(C)C)c3nc(C(C)(C)C)nn32)cc1 (stereo not shown) [D9-5] | ≥ 10 or % by mass | 600 nm | blue | 6.5 | 1.2 mPa·s | 
CCCCCC(CC)c1nc2n(n1)N=C(C(C)CC)/C2=N/c1ccc(N(CC(CC)CCCC)CC(CC)CCCC)cc1C (stereo not shown) [D8-4] | ≥ 10 or % by mass | 562 nm | red | 7.8 | 1.3 mPa·s | 
CCCCC(CC)CN(CC(CC)CCCC)c1ccc(C=C2C(=O)N(C(C)CC)C(=O)C(C#N)=C2C(C)CC)c(C)c1 (stereo not shown) [D3-1] | 6.2 % by mass | 528 nm |  | 9.5 | 1.2 mPa·s | 
CCCCC1=NN(CCCC)C(=O)C1=Cc1ccc(N(CCCC)CCCC)cc1C [D2-101, reference compound] | 0.1 % by mass | 510 nm | orange |  |  | 4.25 × 10^4
CCCCC(CC)CC1=NN(CC(CC)CCCC)C(=O)C1=Nc1ccc(N(CC)CC)cc1OCC(C)(CC(C)CC(C)C)CC(C)CC(C)(C)C (stereo not shown) [D6-2] | ≥ 10 or % by mass | 500 nm |  |  |  | 
CCCCC(CC)COc1cc(N(CC(CC)CCCC)CC(CC)CCCC)ccc1N=C1C(=O)N(CC(CC)CCCC)N=C1C (stereo not shown) [D6-1] | ≥ 10 or % by mass | 505 nm |  | 7.5 | 1.2 mPa·s | 
CCCCCCN(CCCCCC)c1ccc(C=C2C(=O)N(CC(CC)CCCC)N=C2C)c(C)c1 (stereo not shown) [D2-5] | 3.0 % by mass | 510 nm | orange | 8.0 | 1.2 mPa·s | 4.30 × 10^4
CCCCCCOc1cc(N(CC)CC)ccc1N=C1C(=O)N(CCCC)N=C1C [D6-101, reference compound] | 0.1 % by mass | 500 nm | orange |  |  | 
CCCCC(CC)CNc1ccc(NCC(CC)CCCC)c2c1C(=O)c1ccccc1C2=O (stereo not shown) [D4-2] | 3.6 % by mass | 640 nm | blue | 6.5 | 1.3 mPa·s | 
CCCCCCOc1cc(N(CCCC)CCCC)ccc1C=C1C(=O)N(CCCC)C(=O)C(C#N)=C1C [D3-101, reference compound] | ≦0.01 % by mass |  |  |  |  | 
CCCCCCCCN1c2cc(C)c(/N=C3/C(C)=Nn4nc(C(C)CNC(=O)C(CCCCCC)Oc5ccc(C(C)(C)CC)cc5C(C)(C)CC)nc43)cc2C(C)CC1(C)C (stereo not shown) [D8-2] | ≥ 10 or % by mass | 542 nm | red |  |  | 
CCCCC(CC)CN(CC(CC)CCCC)c1ccc(/N=C2\C(C#N)=C(C(=O)OC3C(C(C)(C)C)CC(C)CC3C(C)(C)C)c3nc(C(C)(C)C)nn32)c(C(=O)N(CCCC)CCCC)c1 (stereo not shown) [D9-4] |  |  |  | 5.6 |  | 
CCCCC(CC)CC1=NN(CC(CC)CCCC)C(=O)C1=Cc1ccc(N(CC)CC)cc1OCC(CC(C)CC(C)CC(C)C)CC(C)CC(C)(C)C (stereo not shown) [D2-2] | 9.8 % by mass | 505 nm |  |  |  | 4.60 × 10^4
CCCCC(CC)CN(CC(CC)CCCC)c1ccc(C=C2C(=O)ON=C2C(C)CC)c(C)c1 (stereo not shown) [D1-1] |  |  |  | 8.8 | 1.2 mPa·s | 
CCCCC(CC)CNC(=O)c1cc(N(CC(CC)CCCC)CC(CC)CCCC)ccc1/N=C1/C(CC)=Nn2nc(C(C)C)nc21 (stereo not shown) [D8-9] |  |  |  | 7.7 | 1.3 mPa·s | 
CCCCCCCCN1c2cc(C)c(/N=C3/C(C)=Nn4nc(C(C)(C)C)nc43)cc2C(C)CC1(C)C (stereo not shown) [D8-101, reference compound] | 0.8 % by mass | 541 nm | red |  |  | 

— patent US9075281B2, “Colored composition and image display structure” (FUJIFILM CORPORATION, priority 2011, dated 2015)
